Patent publication US20020160932A1, “Uncompetitive inhibitors of helicase-primase” (priority 2000, published 2002)
pIC50, pKi: −log10 of the molar value. Where two headings read alike, the source gives them in different places.

Legend:
HSV-1 Walkie = experiment: in vivo lethal challenge model, HSV-1 Walki; settings: for ED50: Human alphaherpesvirus 1, in Mus musculus, po, 120 h, read-out: in vivo lethal challenge model HSV-1 Walkie ED50; for in vivo lethal challenge model HSV-1 Walkie ED50: p.o., mice, 3 times a day for 5 days, survival
Method: (§1) 6-week old female mice, strain BALB/cABom, were purchased from a commercial breeder (Bomholtgard Breeding and Research Centre Ltd).
(§2) The animals were anaesthetized with diethyl ether (Merck) in a sealed glass vessel. 50 μl of a dilution of the virus stock (dose for infection 5×10^4 Pfu) were introduced with an Eppendorf pippette into the nose of the anaesthetized animals. This dose leads to death of 90-100% of the animals due to a generalized infection with prominent respiratory and central nervous symptoms after on average between 5 and 8 days.
(§3) 6 hours after the infection, the animals were treated with doses of 0.1-100 mg/kg of body weight 3 times day at 7.00 h, 14.00 h and 19 h over a period of 5 days. The substances were dissolved in DMSO and resuspended in Tylose/PBS (Hoechst) (final concentration 1.5% DMSO, 0.5% Tylose in PBS).
(§4) After the last administration, the animals were observed further and the times of death were recorded.

[1] = test system: Active substance-resistant HSV-1 (F) mutants; experiment: microbe, parasite or virus in culture; settings: Human alphaherpesvirus 1, read-out: IC50 Active substance-resistant HSV-1 (F) mutants
HSV-2 G = experiment: in vitro viral replication assay, human HSV-2 G; assay type: cell-based, herpes simplex virus 2; settings: for pIC50: in vitro viral replication assay; for SI human HSV-2 G: selectivity index SI=(CC50/IC50);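 for SI human HSV-2 G: ratio of CC50 to antiviral IC50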
[2] = test system: Acyclovir-resistant HSV-1 (F) mutants; experiment: microbe, parasite or virus in culture; assay type: cell-based, herpes simplex virus 1
HSV-2 MS = experiment: in vivo lethal challenge model, HSV-2 MS; settings: for ED50: Human alphaherpesvirus 2, in Mus musculus, po, 120 h, read-out: in vivo lethal challenge model HSV-2 MS ED50, p.o., mice, 3 times a day for 5 days, survival; for in vivo lethal challenge model HSV-2 MS ED50: p.o., mice, 3 times a day for 5 days, survival
Method: as §1, §2, §3, §4

Wild-type HSV-1 (F) = experiment: in vitro viral replication assay, wild-type HSV-1 (F); assay type: cell-based, herpes simplex virus 1; settings: for SI Wild-type HSV-1 (F): selectivity index SI=(CC50/IC50);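 for SI Wild-type HSV-1 (F): ratio of CC50 to antiviral IC50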
BHV = experiment: in vitro viral replication assay, bovine BHV; assay type: cell-based; settings: for pIC50: in vitro viral replication assay; for SI bovine BHV: selectivity index SI=(CC50/IC50);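 for SI bovine BHV: ratio of CC50 to antiviral IC50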
PRV = experiment: cells; assay type: cell-based, porcine (PRV); settings: for pIC50: read-out: IC50 porcine PRV
[3] = test system: clinical isolates (39 HSV-1 and 19 HSV-2 isolates); experiment: activity on clinical isolates; assay type: cell-based, herpes simplex virus; settings: 39 HSV-1 and 19 HSV-2 isolates tested
[4] = test system: Active substance-resistant HSV-1 (F) mutants; settings: read-out: IC50 Active substance-resistant HSV-1 (F) mutants
[5] = target: HSV-1 helicase-primase heterodimer enzyme complex (UL5-UL52-6xHis) (Human herpesvirus 1, UniProt P10189+P10236); experiment: HSV-1 DNA-dependent ATPase assay; settings: for type of ATPase inhibition (mechanism): wild-type HSV-1 (F) helicase-primase
HSV-1 helicase-primase heterodimer enzyme complex (UL5-UL52-6xHis), sequence (P10236 whole entry): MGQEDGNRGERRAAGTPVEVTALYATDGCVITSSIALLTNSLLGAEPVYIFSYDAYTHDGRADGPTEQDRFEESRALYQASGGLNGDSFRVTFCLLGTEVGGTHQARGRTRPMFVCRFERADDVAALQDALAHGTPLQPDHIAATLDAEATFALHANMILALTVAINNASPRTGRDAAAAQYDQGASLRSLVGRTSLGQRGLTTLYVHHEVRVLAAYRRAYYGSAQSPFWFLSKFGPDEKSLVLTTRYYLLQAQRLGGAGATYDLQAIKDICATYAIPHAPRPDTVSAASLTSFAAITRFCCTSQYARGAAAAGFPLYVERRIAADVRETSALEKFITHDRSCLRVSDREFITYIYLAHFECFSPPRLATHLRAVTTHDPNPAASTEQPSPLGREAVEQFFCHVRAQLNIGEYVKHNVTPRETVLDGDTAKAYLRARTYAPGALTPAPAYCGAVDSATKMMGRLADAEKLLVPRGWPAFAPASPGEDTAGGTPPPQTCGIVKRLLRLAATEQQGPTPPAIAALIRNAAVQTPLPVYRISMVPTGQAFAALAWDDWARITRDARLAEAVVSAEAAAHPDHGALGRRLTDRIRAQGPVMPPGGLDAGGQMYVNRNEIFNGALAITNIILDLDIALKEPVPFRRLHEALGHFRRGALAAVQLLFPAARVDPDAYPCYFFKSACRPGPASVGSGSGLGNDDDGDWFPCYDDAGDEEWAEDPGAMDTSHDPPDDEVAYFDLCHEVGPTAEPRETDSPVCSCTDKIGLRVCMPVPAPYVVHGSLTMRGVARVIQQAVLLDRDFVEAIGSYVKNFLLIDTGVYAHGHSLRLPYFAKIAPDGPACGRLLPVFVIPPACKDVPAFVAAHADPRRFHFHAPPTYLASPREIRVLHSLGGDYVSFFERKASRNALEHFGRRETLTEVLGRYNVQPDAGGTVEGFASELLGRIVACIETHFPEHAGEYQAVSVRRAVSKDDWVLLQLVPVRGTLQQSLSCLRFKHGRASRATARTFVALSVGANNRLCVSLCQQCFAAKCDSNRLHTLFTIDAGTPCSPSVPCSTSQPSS
HSV-1 helicase-primase heterodimer enzyme complex (UL5-UL52-6xHis), sequence (P10189 whole entry): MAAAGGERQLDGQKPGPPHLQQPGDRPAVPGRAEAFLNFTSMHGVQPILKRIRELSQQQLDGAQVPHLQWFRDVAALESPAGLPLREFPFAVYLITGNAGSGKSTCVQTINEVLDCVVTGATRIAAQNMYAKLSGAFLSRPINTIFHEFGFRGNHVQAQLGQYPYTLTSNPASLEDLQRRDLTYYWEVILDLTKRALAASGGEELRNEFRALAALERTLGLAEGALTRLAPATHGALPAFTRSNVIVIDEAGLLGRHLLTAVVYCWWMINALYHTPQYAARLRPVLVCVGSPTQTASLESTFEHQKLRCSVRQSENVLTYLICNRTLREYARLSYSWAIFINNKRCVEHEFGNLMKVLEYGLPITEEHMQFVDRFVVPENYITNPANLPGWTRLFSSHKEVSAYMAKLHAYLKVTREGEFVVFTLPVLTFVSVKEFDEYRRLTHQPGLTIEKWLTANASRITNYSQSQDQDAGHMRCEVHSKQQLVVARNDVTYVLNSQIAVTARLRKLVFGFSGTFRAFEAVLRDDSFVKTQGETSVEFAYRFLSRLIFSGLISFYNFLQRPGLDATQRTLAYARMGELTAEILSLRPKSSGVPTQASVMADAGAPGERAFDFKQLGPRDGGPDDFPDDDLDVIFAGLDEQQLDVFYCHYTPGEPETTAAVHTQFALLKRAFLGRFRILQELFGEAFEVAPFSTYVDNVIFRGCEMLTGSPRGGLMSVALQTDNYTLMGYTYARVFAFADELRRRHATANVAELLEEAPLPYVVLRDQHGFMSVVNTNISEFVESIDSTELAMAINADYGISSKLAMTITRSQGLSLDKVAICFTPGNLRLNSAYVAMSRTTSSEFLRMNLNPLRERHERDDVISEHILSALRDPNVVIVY
From the text: HSV-1 DNA-dependent ATPase assay (this in vitro assay permits testing for inhibition of the HSV-1 helicase-primase).
The HSV-1 helicase-primase heterodimer enzyme complex was [lacuna] with the aid of the recombinant baculovirus expression system in doubly infected Sf9 (Spodoptera frugiperda) cells. One recombinant baculovirus codes for the UL5 helicase gene and the second virus codes for the manipulated UL52-6×His primase gene.
The genes were amplified from the HSV-1 (F) genome by PCR (American Tissue Culture Collection ATCC VR-733) and cloned into the baculovirus (UL5→pFASTBAC1; UL52→pFASTHTb) as described in detail in the instruction manual for BAC-TO-BAC Baculovirus Expression Systems, Life-Technologies.
The purified heterodimeric helicase-primase complex (200 ng) was incubated with 1 μg of DNA (Sigma D3287 or D8681) in 20 mM HEPES (pH 7.6; 4-(2-hydroxyethyl)-1-piperazineethanesulphonic acid), 5 mM MgCl2, 0.2-5 mM ATP, 100 μg of BSA (bovine serum albumin) per ml, 10% glycerol, 1 mM DTT (DL-dithiothreitol) and, where appropriate, inhibitor in the appropriate concentration at 37° C. for 60 min.
The inhibition of the DNA-dependent ATPase activity was calculated from the change in the absorption in the presence and absence of inhibitor.
The Ki values were calculated with the assistance of the Sigma Plot software 4.0 and the method of nonlinear curve regression.
For this purpose, the ATPase activity of the helicase-primase heterodimer (detection through formation of inorganic phosphate (Pi)) was measured in the presence of saturated DNA concentrations and varying ATP and inhibitor concentrations, as explained in the ATPase assay section.

[6] = in vitro viral replication assay, read-out: IC50 Wild-type HSV-1 (F)

Compound `Nc1nc2c(ncn2COCCO)c(=O)[nH]1` [Acyclovir, acyclovir, reference compound] has an ED50 (HSV-1 Walkie) of 22 mg/kg, a pIC50 [1] of 6.00 and a pIC50 (HSV-2 G; Human alphaherpesvirus 2) of 5.40. For the same compound, the “SI human HSV-2 G” value (HSV-2 G) was 125, the pIC50 ([2]; Human alphaherpesvirus 1, read-out: IC50 Acyclovir-resistant HSV-1 (F) mutants) was 3.90 and the ED50 (HSV-2 MS) was 16 mg/kg. For the same compound, the pIC50 (Wild-type HSV-1 (F); Human alphaherpesvirus 1, in vitro viral replication assay, read-out: IC50 Wild-type HSV-1 (F)) was 6.00 and the “SI Wild-type HSV-1 (F)” value (Wild-type HSV-1 (F)) was 250.

`Cc1nc(N(C)C(=O)Cc2ccc(-c3ccccc3)cc2)sc1S(N)(=O)=O` [Example 5] was tested, and the “in vivo lethal challenge model HSV-1 Walkie ED50” value (HSV-1 Walkie) was 0.5 mg/kg, the pIC50 (BHV) was 7.30 and the “SI bovine BHV” value (BHV) was 5000. The “SI porcine PRV” value (PRV) was 13, the pIC50 (PRV) was 5.10 and the pIC50 (HSV-2 G) was 8.30. The “SI human HSV-2 G” value (HSV-2 G) was 50000, the “activity on clinical isolates” value [3] was “active on all the clinical isolates tested to date” and the “in vivo lethal challenge model HSV-2 MS ED50” value (HSV-2 MS) was 1.1 mg/kg.

With `CNS(=O)(=O)c1sc(N(C)C(=O)Cc2ccc(-c3ccccc3)cc2)nc1C` [Example 4] the “in vivo lethal challenge model HSV-1 Walkie ED50” value (HSV-1 Walkie) was 1 mg/kg, the pIC50 (BHV) was 6.82 and the “SI bovine BHV” value (BHV) was 400. The pIC50 ([4]; Mutant 2 (UL5 K356N)) was less than 3.60, the pIC50 ([4]; Mutant 6 (UL52 A897T)) was less than 6.00 and the “SI porcine PRV” value (PRV) was 66. The pIC50 (PRV) was 5.52, the pIC50 (HSV-2 G) was 7.30 and the “SI human HSV-2 G” value (HSV-2 G) was 5000. The “activity on clinical isolates” value [3] was “active on all the clinical isolates tested to date”, the “in vivo lethal challenge model HSV-2 MS ED50” value (HSV-2 MS) was 3 mg/kg and the pIC50 (Wild-type HSV-1 (F); [6]) was 9.30. The “SI Wild-type HSV-1 (F)” value (Wild-type HSV-1 (F)) was 1E+05.

With `CNS(=O)(=O)c1sc(N(C)C(=O)Nc2ccc(N3CCOCC3)cc2)nc1C` [Example 2] the “in vivo lethal challenge model HSV-1 Walkie ED50” value (HSV-1 Walkie) was 26 mg/kg, the pIC50 (HSV-2 G) was 5.82 and the “SI human HSV-2 G” value (HSV-2 G) was 200. The “in vivo lethal challenge model HSV-2 MS ED50” value (HSV-2 MS) was “weak”, the pIC50 (Wild-type HSV-1 (F); [6]) was 6.30 and the “SI Wild-type HSV-1 (F)” value (Wild-type HSV-1 (F)) was 400.

In the case of `CNS(=O)(=O)c1sc(N(C)C(=O)Nc2ccc(-c3ccccc3)cc2)nc1C` [Example 3], the “in vivo lethal challenge model HSV-1 Walkie ED50” value (HSV-1 Walkie) was 8 mg/kg, the pIC50 ([4]; mutant not named) was less than 3.60 and the pIC50 (HSV-2 G) was 8.30. The “SI human HSV-2 G” value (HSV-2 G) was 25000, the “in vivo lethal challenge model HSV-2 MS ED50” value (HSV-2 MS) was 11 mg/kg and the pIC50 (Wild-type HSV-1 (F); [6]) was 9.00. For the same compound, the “SI Wild-type HSV-1 (F)” value (Wild-type HSV-1 (F)) was 3E+05.

In the case of `Cc1nc(N(C)C(=O)Cc2ccc(-c3cc(F)ccc3F)cc2)sc1S(N)(=O)=O` [Example 6], the “in vivo lethal challenge model HSV-1 Walkie ED50” value (HSV-1 Walkie) was greater than 0.5 mg/kg, the pIC50 (BHV) was 7.52 and the “SI bovine BHV” value (BHV) was 6660. For the same compound, the pIC50 ([4]; M1 + M2 (UL5 G352V)) was less than 3.90, the “SI porcine PRV” value (PRV) was 133 and the pIC50 (PRV) was 5.82. The “activity on clinical isolates” value [3] was “active on all the clinical isolates tested to date”, the “in vivo lethal challenge model HSV-2 MS ED50” value (HSV-2 MS) was 0.5 mg/kg and the “Concentration of liberated inorganic phosphate” value (“Concentration” below) ([5]; inhibitor 0.00128 μM, ATP 0.3 mM) was 0.066 mM. For the same compound, the “Concentration” value ([5]; inhibitor 0.00128 μM, ATP 0.4 mM) was 0.067 mM, the “Concentration” value ([5]; inhibitor 0.00128 μM, ATP 0.6 mM) was 0.085 mM and the “Concentration” value ([5]; inhibitor 0.00128 μM, ATP 0.8 mM) was 0.099 mM. The “Concentration” value ([5]; inhibitor 0.00128 μM, ATP 1 mM) was 0.108 mM, the “Concentration” value ([5]; inhibitor 0.00128 μM, ATP 3 mM) was 0.127 mM and the “Concentration” value ([5]; inhibitor 0.0064 μM, ATP 0.3 mM) was 0.040 mM. For the same compound, the “Concentration” value ([5]; inhibitor 0.0064 μM, ATP 0.4 mM) was 0.045 mM, the “Concentration” value ([5]; inhibitor 0.0064 μM, ATP 0.6 mM) was 0.062 mM and the “Concentration” value ([5]; inhibitor 0.0064 μM, ATP 0.8 mM) was 0.064 mM. For the same compound, the “Concentration” value ([5]; inhibitor 0.0064 μM, ATP 1 mM) was 0.071 mM, the “Concentration” value ([5]; inhibitor 0.0064 μM, ATP 3 mM) was 0.113 mM and the “Concentration” value ([5]; inhibitor 0.032 μM, ATP 0.3 mM) was 0.025 mM. For the same compound, the “Concentration” value ([5]; inhibitor 0.032 μM, ATP 0.4 mM) was 0.029 mM, the “Concentration” value ([5]; inhibitor 0.032 μM, ATP 0.6 mM) was 0.037 mM and the “Concentration” value ([5]; inhibitor 0.032 μM, ATP 0.8 mM) was 0.044 mM. For the same compound, the “Concentration” value ([5]; inhibitor 0.032 μM, ATP 1 mM) was 0.055 mM, the “Concentration” value ([5]; inhibitor 0.032 μM, ATP 3 mM) was 0.085 mM and the “Concentration” value ([5]; inhibitor 0.16 μM, ATP 0.3 mM) was 0.017 mM. The “Concentration” value ([5]; inhibitor 0.16 μM, ATP 0.4 mM) was 0.022 mM, the “Concentration” value ([5]; inhibitor 0.16 μM, ATP 0.6 mM) was 0.029 mM and the “Concentration” value ([5]; inhibitor 0.16 μM, ATP 0.8 mM) was 0.033 mM. The “Concentration” value ([5]; inhibitor 0.16 μM, ATP 1 mM) was 0.040 mM, the “Concentration” value ([5]; inhibitor 0.16 μM, ATP 3 mM) was 0.066 mM and the “Concentration” value ([5]; inhibitor 0.8 μM, ATP 0.3 mM) was 0.010 mM. The “Concentration” value ([5]; inhibitor 0.8 μM, ATP 0.4 mM) was 0.013 mM, the “Concentration” value ([5]; inhibitor 0.8 μM, ATP 0.6 mM) was 0.019 mM and the “Concentration” value ([5]; inhibitor 0.8 μM, ATP 0.8 mM) was 0.023 mM. The “Concentration” value ([5]; inhibitor 0.8 μM, ATP 1 mM) was 0.027 mM, the “Concentration” value ([5]; inhibitor 0.8 μM, ATP 3 mM) was 0.054 mM and the “Concentration” value ([5]; inhibitor 4 μM, ATP 0.3 mM) was 0.006 mM. For the same compound, the “Concentration” value ([5]; inhibitor 4 μM, ATP 0.4 mM) was 0.007 mM, the “Concentration” value ([5]; inhibitor 4 μM, ATP 0.6 mM) was 0.010 mM and the “Concentration” value ([5]; inhibitor 4 μM, ATP 0.8 mM) was 0.012 mM. The “Concentration” value ([5]; inhibitor 4 μM, ATP 1 mM) was 0.018 mM, the “Concentration” value ([5]; inhibitor 4 μM, ATP 3 mM) was 0.044 mM and the “Concentration” value ([5]; inhibitor 20 μM, ATP 0.3 mM) was 0.004 mM. The “Concentration” value ([5]; inhibitor 20 μM, ATP 0.4 mM) was 0.004 mM, the “Concentration” value ([5]; inhibitor 20 μM, ATP 0.6 mM) was 0.006 mM and the “Concentration” value ([5]; inhibitor 20 μM, ATP 0.8 mM) was 0.010 mM. The “Concentration” value ([5]; inhibitor 20 μM, ATP 1 mM) was 0.008 mM, the “Concentration” value ([5]; inhibitor 20 μM, ATP 3 mM) was 0.030 mM and the “Concentration” value ([5]; inhibitor 100 μM, ATP 0.3 mM) was 0.005 mM. For the same compound, the “Concentration” value ([5]; inhibitor 100 μM, ATP 0.4 mM) was 0.006 mM, the “Concentration” value ([5]; inhibitor 100 μM, ATP 0.6 mM) was 0.008 mM and the “Concentration” value ([5]; inhibitor 100 μM, ATP 0.8 mM) was 0.008 mM. The “Concentration” value ([5]; inhibitor 100 μM, ATP 1 mM) was 0.014 mM, the “Concentration” value ([5]; inhibitor 100 μM, ATP 3 mM) was 0.032 mM and the pKi ([5]; read-out: in vitro ATPase inhibition wild-type HSV-1 (F) Ki, nonlinear curve regression) was 8.15. For the same compound, the “type of ATPase inhibition (mechanism)” value [5] was “un-”.

In the case of `Cc1nc(N(C)C(=O)Cc2ccc(-c3ccccn3)cc2)sc1S(N)(=O)=O` [Example 7], the ED50 (HSV-1 Walkie) was 0.5 mg/kg, the pIC50 (BHV; Bos taurus) was 6.90 and the “SI bovine BHV” value (BHV) was 240. The “SI porcine PRV” value (PRV) was greater than 50, the pIC50 (PRV; Sus scrofa) was 5.30 and the pIC50 (HSV-2 G; Human alphaherpesvirus 2) was 7.70. The “SI human HSV-2 G” value (HSV-2 G) was 3000, the “activity on clinical isolates” value [3] was “active on all the clinical isolates tested to date” and the ED50 (HSV-2 MS) was roughly 0.5 mg/kg. The pKi [5] was 7.52, the “type of ATPase inhibition (mechanism)” value [5] was “uncom-” and the pIC50 (Wild-type HSV-1 (F); Human alphaherpesvirus 1, read-out: IC50 Wild-type HSV-1 (F)) was 7.70. The “SI Wild-type HSV-1 (F)” value (Wild-type HSV-1 (F)) was 2500.

Compound `CC(C)[C@H](N)C(=O)OCCOCn1cnc2c(=O)[nH]c(N)nc21` [Valtrex, reference compound] has an ED50 (HSV-1 Walkie) of 17 mg/kg and an ED50 (HSV-2 MS) of 14 mg/kg.

`Cc1nc(N(C)C(=O)Nc2ccc(N3CCOCC3)cc2)sc1S(=O)(=O)N(C)C` [Example 1] was tested, and the “in vivo lethal challenge model HSV-1 Walkie ED50” value (HSV-1 Walkie) was 60 mg/kg, the pIC50 (BHV) was 5.82 and the “SI bovine BHV” value (BHV) was greater than 167. For the same compound, the pIC50 ([4]; Mutant 1 (UL5 M355V, UL5 V6621, UL52 A897T)) was less than 3.60, the “SI porcine PRV” value (PRV) was greater than 63 and the pIC50 (PRV) was 5.40. For the same compound, the pIC50 (HSV-2 G) was 5.82, the “SI human HSV-2 G” value (HSV-2 G) was 167 and the pIC50 ([2]; in vitro viral replication assay, read-out: IC50 Acyclovir-resistant HSV-1 (F) mutants) was 6.12. The “activity on clinical isolates” value [3] was “active on all the clinical isolates tested to date”, the “in vivo lethal challenge model HSV-2 MS ED50” value (HSV-2 MS) was “weak” and the pIC50 (Wild-type HSV-1 (F); [6]) was 6.12. The “SI Wild-type HSV-1 (F)” value (Wild-type HSV-1 (F)) was 350.
